Experiment [1] deals with T1, MYT1 protein (Homo sapiens (Human), UniProt Q99640). The experiment in a line: Test for binding to ATP binding site of MYT1 (Kinase Tracer 178 / Eu-Anti-GST antibody TR-FRET). The following applies: ATP binding site of MYT1, 30 minutes at room temperature. (TR-FRET usually uses a lanthanide donor and a delayed reading to cut background.)
For experiment [2], the target named is T1, MYT1 protein. The experiment in a line: MYT1 kinase activity inhibition test (ELISA, phosphorylation of Y15 of CDK1). It is filed as biochemical. The settings on record: phosphorylation level of Y15 of CDK1 protein caused by MYT1 protein, 60 minutes. The gist of the method: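 Recombinant human MYT1 (5 nM working solution) was incubated 60 min at room temperature with compound and ATP (83.3 μM working solution) on a CDK1-coated ELISA plate. CDK1 Y15 phosphorylation was detected with HRP anti-phosphotyrosine, read as A450 minus A590. Inhibition was normalised to no-compound (100%) and no-enzyme (0%) signals to derive IC50.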
For orientation: ELISA stands for enzyme-linked immunosorbent assay.

The test system of experiment [3] is LU65. The experiment in a line: Cytotoxicity test with pemetrexed upon addition of each example compound (CellTiter-Glo). Format: cell-based, human. The settings on record: combination with pemetrexed, LU65 cells, 7 days; maximum value, at the MYT1 inhibitor and pemetrexed concentrations. Put shortly: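 LU65 lung cancer cells (RB1 S82* truncation, reduced RB1 function) in RPMI-1640/10% FBS were treated with pemetrexed plus each compound over concentration series, 7 days at 37 °C. ATP measured by CellTiter-Glo luminescence; survival relative to DMSO after blank subtraction, cytotoxicity = 100% minus survival.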
(In general: ATP-based viability assays read luminescence as a measure of living cells.)

SMILES strings stand for the structures. Where only a bound is given, the exact number is not on record here.

T1 sequence (Q99640 whole entry): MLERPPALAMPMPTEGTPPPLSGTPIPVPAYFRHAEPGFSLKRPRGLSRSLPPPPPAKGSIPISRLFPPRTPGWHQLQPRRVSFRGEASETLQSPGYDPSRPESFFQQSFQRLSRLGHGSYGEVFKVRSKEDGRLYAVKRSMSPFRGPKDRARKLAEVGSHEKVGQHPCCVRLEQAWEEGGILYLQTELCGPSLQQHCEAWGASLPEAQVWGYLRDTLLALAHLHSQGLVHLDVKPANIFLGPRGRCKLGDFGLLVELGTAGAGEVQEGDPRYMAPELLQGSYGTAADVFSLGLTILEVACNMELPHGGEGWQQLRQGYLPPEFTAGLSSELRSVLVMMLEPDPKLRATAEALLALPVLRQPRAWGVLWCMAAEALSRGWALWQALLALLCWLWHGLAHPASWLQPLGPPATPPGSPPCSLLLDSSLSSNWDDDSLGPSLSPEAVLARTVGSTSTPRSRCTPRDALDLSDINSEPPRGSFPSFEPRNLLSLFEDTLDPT

Consider `Nc1c(-c2ccc(F)c3[nH]ncc23)c2cc(Cl)c3ncccc3c2[nH]c1=O` [Compound C78, 3-Amino-6-chloro-4-(7-fluoro-1H-indazol-4-yl)-1H-1,7-phenanthrolin-2-one], for which the 50% inhibitory concentration (IC50) (commonly the concentration that gives 50% inhibition) in experiment [1] was 3.1 nM; in experiment [2], < 0.17 nM. For the same compound, the “Bliss Score (Max)” value in experiment [3] is given as 53%. Also, the “HSA Score (MAX)” value in experiment [3] stood at 66%.
As for `CCc1cc2c(-c3ccc(F)c4[nH]ncc34)c(N)c(=O)[nH]c2c2ccccc12` [Compound B23, 3-Amino-6-ethyl-4-(7-fluoro-1H-indazol-4-yl)-1H-benzo[h]quinolin-2-one], the concentration for half-maximal inhibition (IC50) in experiment [1] amounted to 8.3 nM. The 50% inhibitory concentration (IC50) in experiment [2] turned out to be 0.26 nM. Further, in experiment [3], the “Bliss Score (Max)” value came out at 58% and the “HSA Score (MAX)” value came out at 63%.

The values above are taken from patent US20260062412A1, “NITROGEN-CONTAINING HETEROCYCLIC COMPOUND HAVING MYT1 INHIBITORY ACTIVITY” (CHUGAI SEIYAKU KABUSHIKI KAISHA, priority 2023, published 2026).
